Data taken from patent US9085606B2, “Beta amino acid derivatives as integrin antagonists” (Saint Louis University, priority 2012, dated 2015).

Experiments:
[1] = target: T1, Recombinant human integrin αvβ3 (Homo sapiens, UniProt P05106+P06756); test: Solid Phase Receptor Assay for αvβ3 Function; details: binding to vitronectin-coated plate; read-out: αvβ3 SPRA IC50
T1 construct: purchased R&D Systems 3050-AV
Method: Solid Phase Receptor Assay for αvβ3 Function.
Wells were washed 3 times with 150 μL TBS+ and 150 μL of blocking buffer (TBS+ with 1% bovine serum albumin, Sigma A7906) were added. The plate was incubated for 1 hr at 37° C. and then washed 3× with TBS+ buffer. […] Compounds were diluted 1:100 into the integrin solution and then 50 μL added to empty wells of the washed vitronectin-coated plate according to a standard template with each sample repeated in triplicate. After incubation for two hours at room temperature, the plate was washed 3× with 150 μL of TBS+ buffer. To each well, 50 μL of biotinylated anti-αv antibody (R&D Systems, BAF1219) at 0.5 μg/mL in TBS+/0.1% BSA were added and the plate covered and incubated for 1 hr at room temperature. After washing the plate 3× with 150 μL of TBS+ buffer, 50 μL of streptavidin-conjugated horseradish peroxidase (R&D Systems, DY998) diluted in TBS+ blocking buffer were added to the wells and the plate incubated for 20 min at room temperature. The plate was washed 3× with TBS+ buffer followed by 50 μL of TMB substrate (Sigma, T4444) added to each well and the plate was incubated for 20 min at room temperature. The reaction was optionally stopped with 25 μL of Stop Solution (Sigma, S5689). Plates were read by colorimetric detection at 650 nm wavelength using a Tecan S afire II plate reader.

[2] = target: T2, Recombinant human integrin α5β1 (Homo sapiens, UniProt P05556+P08648); test: Solid Phase Receptor Assay for α5β1 Function; details: binding to fibronectin-coated plate; read-out: α5β1 SPRA IC50
T2 construct: purchased R&D Systems 3230-A5
T2 sequence (P08648 42-995 limits assumed): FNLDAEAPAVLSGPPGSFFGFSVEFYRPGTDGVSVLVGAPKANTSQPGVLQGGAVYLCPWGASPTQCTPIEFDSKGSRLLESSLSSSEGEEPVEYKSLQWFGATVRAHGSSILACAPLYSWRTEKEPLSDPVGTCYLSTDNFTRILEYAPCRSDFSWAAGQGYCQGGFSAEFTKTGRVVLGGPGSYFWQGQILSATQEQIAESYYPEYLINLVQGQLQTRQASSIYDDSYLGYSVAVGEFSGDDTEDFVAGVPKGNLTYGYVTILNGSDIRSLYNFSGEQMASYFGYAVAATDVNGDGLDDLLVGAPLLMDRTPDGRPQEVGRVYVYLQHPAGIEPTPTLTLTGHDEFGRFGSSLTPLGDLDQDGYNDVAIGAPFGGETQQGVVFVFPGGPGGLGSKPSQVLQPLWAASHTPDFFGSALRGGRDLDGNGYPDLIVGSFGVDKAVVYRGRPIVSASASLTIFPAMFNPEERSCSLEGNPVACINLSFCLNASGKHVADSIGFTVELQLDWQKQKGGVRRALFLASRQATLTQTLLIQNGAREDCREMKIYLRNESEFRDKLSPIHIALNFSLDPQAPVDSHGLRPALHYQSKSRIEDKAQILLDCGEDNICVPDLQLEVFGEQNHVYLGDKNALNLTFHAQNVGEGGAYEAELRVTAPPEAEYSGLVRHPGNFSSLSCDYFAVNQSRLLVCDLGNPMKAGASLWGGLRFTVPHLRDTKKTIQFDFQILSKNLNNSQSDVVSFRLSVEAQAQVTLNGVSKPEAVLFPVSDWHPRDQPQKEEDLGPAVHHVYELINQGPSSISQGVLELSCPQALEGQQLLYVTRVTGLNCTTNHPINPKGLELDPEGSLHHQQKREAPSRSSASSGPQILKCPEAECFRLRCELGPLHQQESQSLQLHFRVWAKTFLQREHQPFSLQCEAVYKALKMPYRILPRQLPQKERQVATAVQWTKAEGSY
T2 sequence (P05556 21-728 limits assumed): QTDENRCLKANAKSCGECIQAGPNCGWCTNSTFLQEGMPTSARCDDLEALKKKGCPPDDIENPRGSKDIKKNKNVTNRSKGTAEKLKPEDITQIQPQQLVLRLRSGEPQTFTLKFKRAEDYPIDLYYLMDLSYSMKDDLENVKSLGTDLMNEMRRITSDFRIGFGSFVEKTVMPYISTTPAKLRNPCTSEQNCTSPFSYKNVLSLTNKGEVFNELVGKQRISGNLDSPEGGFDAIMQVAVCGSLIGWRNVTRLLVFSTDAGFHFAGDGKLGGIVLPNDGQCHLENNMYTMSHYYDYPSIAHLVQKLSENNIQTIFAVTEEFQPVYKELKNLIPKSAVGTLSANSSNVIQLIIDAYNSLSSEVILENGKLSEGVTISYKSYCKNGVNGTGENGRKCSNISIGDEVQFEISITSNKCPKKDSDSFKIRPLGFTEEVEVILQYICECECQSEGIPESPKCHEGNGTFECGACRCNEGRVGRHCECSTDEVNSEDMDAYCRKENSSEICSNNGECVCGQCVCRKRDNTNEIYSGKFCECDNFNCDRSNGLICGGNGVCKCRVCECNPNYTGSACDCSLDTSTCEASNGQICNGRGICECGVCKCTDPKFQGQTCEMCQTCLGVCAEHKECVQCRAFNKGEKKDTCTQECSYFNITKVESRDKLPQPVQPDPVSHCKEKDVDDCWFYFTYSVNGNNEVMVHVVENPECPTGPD
Method: Solid Phase Receptor Assay for α5β1 Function.
Wells were washed 3 times with 150 μL TBS+ and 150 μl of blocking buffer (TBS+ with 1% bovine serum albumin, Sigma A7906) were added. The plate was incubated for 1 hr at 37° C. and then washed 3× with TBS+ buffer. […] Compounds were diluted 1:100 into the integrin solution and then 50 μL added to empty wells of the washed fibronectin-coated plate according to a standard template with each sample repeated in triplicate. After incubation for two hours at room temperature, the plate was washed 3× with 150 μL of TBS+ buffer. To each well, 50 μL of biotinylated anti-α5 antibody (R&D Systems, BAF1864) at 0.5 ug/mL in TBS+/0.1% BSA were added and the plate covered and incubated for 1 hr at room temperature. After washing the plate 3× with 150 μL of TBS+ buffer, 50 μL of streptavidin-conjugated horseradish peroxidase (R&D Systems, DY998) diluted in TBS+ blocking buffer were added to the wells and the plate incubated for 20 min at room temperature. The plate was washed 3× with TBS+ buffer followed by 50 μL of room temperature TMB substrate (Sigma, T444) added to each well and the plate incubated for 20 min at room temperature. The reaction was optionally stopped with 25 μL of Stop Solution (Sigma S5689). Plates were read by colorimetric detection at 650 nm wavelength using a Tecan Safire II plate reader.

[3] = target: T3, Recombinant human integrin αvβ1 (Homo sapiens, UniProt P05556+P06756); test: Solid Phase Receptor Assay for αvβ1 Function; details: binding to fibronectin-coated plate; read-out: αvβ1 SPRA IC50
T3 construct: purchased R&D Systems 6579-AV
T3 sequence (P06756 31-992 limits assumed): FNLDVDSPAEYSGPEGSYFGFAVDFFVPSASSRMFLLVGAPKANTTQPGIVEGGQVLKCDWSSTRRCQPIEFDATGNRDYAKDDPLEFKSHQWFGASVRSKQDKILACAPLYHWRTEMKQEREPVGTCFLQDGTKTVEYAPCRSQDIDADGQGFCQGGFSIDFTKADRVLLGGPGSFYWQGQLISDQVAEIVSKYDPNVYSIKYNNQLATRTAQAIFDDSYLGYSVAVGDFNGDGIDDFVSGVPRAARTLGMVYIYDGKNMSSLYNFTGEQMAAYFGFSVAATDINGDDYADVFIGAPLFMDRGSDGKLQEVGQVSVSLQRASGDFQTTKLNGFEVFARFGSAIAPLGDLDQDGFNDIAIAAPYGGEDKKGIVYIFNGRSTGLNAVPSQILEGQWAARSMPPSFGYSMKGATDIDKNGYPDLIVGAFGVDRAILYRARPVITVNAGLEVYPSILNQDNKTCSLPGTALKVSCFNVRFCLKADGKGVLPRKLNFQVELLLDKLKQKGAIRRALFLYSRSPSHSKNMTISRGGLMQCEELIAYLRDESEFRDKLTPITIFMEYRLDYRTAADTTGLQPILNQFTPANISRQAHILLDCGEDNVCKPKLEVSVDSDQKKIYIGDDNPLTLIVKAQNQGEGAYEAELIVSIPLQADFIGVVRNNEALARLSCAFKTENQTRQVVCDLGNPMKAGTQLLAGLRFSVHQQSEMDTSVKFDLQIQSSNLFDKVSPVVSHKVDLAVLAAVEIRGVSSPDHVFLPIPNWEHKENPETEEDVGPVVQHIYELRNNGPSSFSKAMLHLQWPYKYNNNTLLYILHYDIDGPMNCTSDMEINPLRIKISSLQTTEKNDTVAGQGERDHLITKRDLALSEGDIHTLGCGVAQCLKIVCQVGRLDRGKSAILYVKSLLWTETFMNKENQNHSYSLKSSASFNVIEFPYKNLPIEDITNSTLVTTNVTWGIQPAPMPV
T3 sequence (P05556 21-728 limits assumed): as the sequence (P05556 21-728 limits assumed) above
Method: Solid Phase Receptor Assay for αvβ1 Function.
Wells were washed 3 times with 150 μl TBS+ and 150 μL of blocking buffer (TBS+ with 1% bovine serum albumin, Sigma A7906) were added. The plate was incubated for 1 hr at 37° C. and then washed 3× with TBS+ buffer. […] Compounds were diluted 1:100 into the integrin solution and 50 μL added to empty wells of the washed fibronectin-coated plate according to a standard template with each sample repeated in triplicate. After incubation for two hours at room temperature, the plate was washed 3× with 150 μL of TBS+ buffer. To each well, 50 μL of biotinylated anti-αv antibody (R&D Systems, BAF1219) at 1 μg/mL in TBS+/0.1% BSA were added and the plate covered and incubated for 1 hr at room temperature. After washing the plate 3× with 150 μL of TBS+ buffer, 50 μL of streptavidin-conjugated horseradish peroxidase (R&D Systems, DY998) diluted in TBS+ blocking buffer were added to the wells and the plate incubated for 20 min at room temperature. The plate was washed 3× with TBS+ buffer followed by 50 μL of TMB substrate (Sigma, T4444) added to each well and the plate incubated for 20 min at room temperature. The reaction was optionally stopped with 25 μL of Stop Solution (Sigma S5689). Plates were read by colorimetric detection at 650 nm wavelength using a Tecan Safire II plate reader.

[4] = target: T4, Recombinant human integrin αvβ8 (Homo sapiens, UniProt P06756+P26012); test: Solid Phase Receptor Assay for αvβ8 Function; details: binding to LAP-coated plate; read-out: αvβ8 SPRA IC50
T4 construct: purchased R&D Systems 4135-AV
T4 sequence (P06756 31-992 limits assumed): as the sequence (P06756 31-992 limits assumed) above
T4 sequence (P26012 43-684 limits assumed): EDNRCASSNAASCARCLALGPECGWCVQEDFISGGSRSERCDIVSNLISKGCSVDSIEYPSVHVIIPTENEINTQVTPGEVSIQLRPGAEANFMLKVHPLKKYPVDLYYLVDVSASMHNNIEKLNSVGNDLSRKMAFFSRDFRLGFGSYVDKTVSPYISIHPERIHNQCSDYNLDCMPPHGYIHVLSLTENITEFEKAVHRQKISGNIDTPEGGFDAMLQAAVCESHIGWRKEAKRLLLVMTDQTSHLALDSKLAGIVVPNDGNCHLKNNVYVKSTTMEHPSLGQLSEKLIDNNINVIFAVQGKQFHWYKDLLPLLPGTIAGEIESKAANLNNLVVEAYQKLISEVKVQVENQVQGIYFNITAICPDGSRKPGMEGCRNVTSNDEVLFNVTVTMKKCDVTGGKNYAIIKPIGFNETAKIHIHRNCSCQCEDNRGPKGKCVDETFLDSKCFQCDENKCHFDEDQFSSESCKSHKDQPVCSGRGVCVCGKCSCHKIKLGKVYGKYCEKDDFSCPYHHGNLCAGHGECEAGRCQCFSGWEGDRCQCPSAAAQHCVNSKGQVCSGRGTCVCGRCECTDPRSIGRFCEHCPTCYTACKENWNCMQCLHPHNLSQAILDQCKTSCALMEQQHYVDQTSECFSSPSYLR
Method: Solid Phase Receptor Assay for αvβ8 Function.
Wells were washed 3 times with 150 μL TBS+ and 150 μL of blocking buffer (TBS+ with 1% bovine serum albumin, Sigma A7906) were added. The plate was incubated for 1 hr at 37° C. and then washed 3× with TBS+. […] Compounds were diluted 1:100 into the integrin solution and 50 μL added to empty wells of the washed LAP-coated plate according to a standard template with each sample repeated in triplicate. After incubation for two hours at room temperature, the plate was washed 3× with 150 μL of TBS+. To each well, 50 μL of biotinylated anti-αv antibody (R&D Systems, BAF1219) at 1 μg/mL in TBS+/0.1% BSA were added and the plate was covered and incubated for 1 hr at room temperature. After washing the plate 3× with 150 μL of TBS+ buffer, 50 μL of streptavidin-conjugated horseradish peroxidase (R&D Systems, DY998) diluted in TBS+ blocking buffer were added to the wells and the plate incubated for 20 min at room temperature. The plate was washed 3× with TBS+ followed by 50 μL of TMB substrate (Sigma T4444) added to each well and the plate incubated for 20 min at room temperature. The reaction was optionally stopped with 25 μL of Stop Solution (Sigma S5689). Plates were read by colorimetric detection at 650 nm wavelength using a Tecan Safire II plate reader.

T1 sequence (P06756 31-992 limits assumed): as the sequence (P06756 31-992 limits assumed) above
T1 sequence (P05106 27-718 limits assumed): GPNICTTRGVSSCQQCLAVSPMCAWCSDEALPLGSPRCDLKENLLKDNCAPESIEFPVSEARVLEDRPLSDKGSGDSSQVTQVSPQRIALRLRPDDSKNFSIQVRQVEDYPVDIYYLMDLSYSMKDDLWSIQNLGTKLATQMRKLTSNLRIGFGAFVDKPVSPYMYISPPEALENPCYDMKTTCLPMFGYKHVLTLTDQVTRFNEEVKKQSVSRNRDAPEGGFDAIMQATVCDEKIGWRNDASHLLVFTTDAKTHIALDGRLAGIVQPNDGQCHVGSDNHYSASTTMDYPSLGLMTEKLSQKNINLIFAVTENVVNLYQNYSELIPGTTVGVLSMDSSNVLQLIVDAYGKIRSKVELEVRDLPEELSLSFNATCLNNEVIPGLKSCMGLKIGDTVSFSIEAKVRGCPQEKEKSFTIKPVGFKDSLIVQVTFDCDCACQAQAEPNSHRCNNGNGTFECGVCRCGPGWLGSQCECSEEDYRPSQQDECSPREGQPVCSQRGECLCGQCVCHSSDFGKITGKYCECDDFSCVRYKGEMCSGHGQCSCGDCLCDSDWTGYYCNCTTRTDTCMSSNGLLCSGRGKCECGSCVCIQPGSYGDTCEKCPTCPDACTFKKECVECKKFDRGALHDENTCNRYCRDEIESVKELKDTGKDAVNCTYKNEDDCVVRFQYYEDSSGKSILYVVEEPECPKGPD

| Structure (SMILES) | IC50 [1] [nM] | IC50 [2] [nM] | IC50 [3] [nM] | IC50 [4] [nM] |
| --- | --- | --- | --- | --- |
| COCC1(c2cc(Cl)cc([C@H](CC(=O)O)NC(=O)CNC(=O)c3cc(O)cc(NC4=NCC(O)CN4)c3)c2)CCOCC1 (stereo partly drawn) [Example 16, (3S)-3-(3-chloro-5-(4-(Methoxymethyl)tetrahydro-2H-pyran-4-yl)phenyl)-3-(2-(3-hydroxy-5-((5-hydroxy-1,4,5,6-tetrahydropyrimidin-2-yl)amino)benzamido)acetamido)propanoic acid] | 1.7 | 0.5 | 3.3 | 0.4 |
| CC(C)(C)c1cc(-c2cncnc2)cc([C@H](CC(=O)O)NC(=O)CNC(=O)c2cc(O)cc(NC3=NCC(O)CN3)c2)c1 (stereo partly drawn) [Example 19, (3S)-3-(3-(tert-butyl)-5-(pyrimidin-5-yl)phenyl)-3-(2-(3-hydroxy-5-((5-hydroxy-1,4,5,6-tetrahydropyrimidin-2-yl)amino)benzamido)acetamido)propanoic acid] | 8.8 | 0.4 | 4.1 | 0.4 |
| CC(C)(C)c1cc(Br)c(O)c([C@H](CC(=O)O)NC(=O)CNC(=O)c2cc(O)cc(NC3=NCC(O)CN3)c2)c1 (stereo partly drawn) [Example 1, (3S)-3-(3-bromo-5-(tert-butyl)-2-hydroxyphenyl)-3-(2-(3-hydroxy-5-((5-hydroxy-1,4,5,6-tetrahydropyrimidin-2-yl)amino)benzamido)acetamido)propanoic acid] | 5.1 | 0.5 | 2.1 | 0.1 |
| CC(C)(C)c1cc(Br)cc([C@H](CC(=O)O)NC(=O)CNC(=O)c2cccc(NC3=NCCN3)c2)c1 [Example 7, (S)-3-(3-bromo-5-(tert-butyl)phenyl)-3-(2-(3-((4,5-dihydro-1H-imidazol-2-yl)amino)benzamido)acetamido)propanoic acid] | 1.3 | 0.7 | 2.7 | 0.1 |
| O=C(O)C[C@H](NC(=O)CNC(=O)c1cc(O)cc(NC2=NCC(O)CN2)c1)c1cc(Cl)cc(C2(CF)CCOCC2)c1 (stereo partly drawn) [Example 20, (3S)-3-(3-chloro-5-(4-(fluoromethyl)tetrahydro-2H-pyran-4-yl)phenyl)-3-(2-(3-hydroxy-5-((5-hydroxy-1,4,5,6-tetrahydropyrimidin-2-yl)amino)benzamido)acetamido)propanoic acid] | 3.7 | 2.4 | 4.9 | 0.5 |
| COCC(C)(C)c1cc(Cl)cc([C@H](CC(=O)O)NC(=O)CNC(=O)c2cc(O)cc(NC3=NCC(O)CN3)c2)c1 (stereo partly drawn) [Example 14, (3S)-3-(3-chloro-5-(1-methoxy-2-methylpropan-2-yl)phenyl)-3-(2-(3-hydroxy-5-((5-hydroxy-1,4,5,6-tetrahydropyrimidin-2-yl)amino)benzamido)acetamido)propanoic acid] | 1.7 | 0.2 | 2.4 | 0.3 |
| CC(C)(C)c1cc(Br)cc([C@H](CC(=O)O)NC(=O)CNC(=O)c2cncc(NC3=NCC(O)CN3)c2)c1 (stereo partly drawn) [Example 8, (3S)-3-(3-bromo-5-(tert-butyl)phenyl)-3-(2-(5-((5-hydroxy-1,4,5,6-tetrahydropyrimidin-2-yl)amino)nicotinamido)acetamido)propanoic acid] | 1.5 | 0.4 | 3 | 0.1 |
